In patent publication US6469052B2, “Compounds for the photodecontamination of pathogens in blood” (Cerus Corporation, priority 1993, dated 2002):

How the values were obtained:
[1] = test system: Salmonella typhimurium TA98; test: Ames assay (dark mutagenicity), strain TA98
Source text: The second property that is important in testing a compound for use in methods of the present invention is mutagenicity. The most widely used mutagen/carcinogen screening assay is the Ames test. This assay is described by D. M. Maron and B. N. Ames in Mutation Research 113: 173 ( 1983) and a specific screen is described in detail in Example 17, below. The Ames test utilizes several unique strains of Salmonella typhimurium that are histidine- dependent for growth and that lack the usual DNA repair enzymes. The frequency of normal mutations that render the bacteria independent of histidine (i.e., the frequency of spontaneous revertants) is low. The test allows one to evaluate the impact of a compound on this revertant frequency.
In this example the compounds of the present invention are tested for their dark mutagenicity using an Ames assay. The procedures used for the Salmonella mutagenicity test as described in detail by Maron and Ames were followed exactly. Maron, D. M. and B. N. Ames, Mutation Research 113: 173 ( 1983). A brief description for each procedure is given here. The tester strains TA97a, TA98, TA100, TA102, TA1537 and TA1538 were obtained from Dr. Ames. TA97a, TA98, TA1537 and TA1538 are frameshift tester strains. TA100 and TA102 are base-substitution tester strains. Upon receipt each strain was cultured under a variety of conditions to confirm the genotypes specific to the strains.
The first tests done with the strains were to determine the range of spontaneous reversion for each of the strains. With each mutagenicity experiment the spontaneous reversion of the tester strains to histidine independence was measured and expressed as the number of spontaneous revertants per plate. This served as the background controls.
For all experiments, the pre-incubation procedure was used. In this procedure one vial of each tester strain was thawed and 20 μL of this culture was added to 6 mL of Oxoid Nutrient Broth #2. This solution was allowed to shake for 10 hours at 37° C. In the pre-incubation procedure, 0.1 mL of this overnight culture was added to each of the required number of sterile test tubes. To half of the tubes 0.5 mL of a 10% S-9 solution containing Aroclor 1254 induced rat liver extract (Molecular Toxicology Inc., Annapolis, Md.), and MgCl2, KCl, glucose-6-phosphate, NADP, and sodium phosphate buffer (Sigma, St. Louis, Mo.) were added. To the other half of the tubes 0.5 mL of 0.2M sodium phospate buffer, pH 7.4, was used in place of the S-9 mixture (the -S9 samples). Finally 0.1 mL of the test solution containing either 0, 0.1, 0.5, 1, 5, 10, 50, 100, 250, or 500 μg/mL of the test compound was added. The 0.7 mL mixture was vortexed and then pre-incubated while shaking for 20 minutes at 37° C. After shaking, 2 mL of molten top agar supplemented with histidine and biotin were added to the 0.7 mL mixture and immediately poured onto a minimal glucose agar plate (volume of base agar was 20 mL). The top agar was allowed 30 minutes to solidify and then the plates were inverted and incubated for 44 hours at 37° C. After incubation the number of revertant colonies on each plate were counted. […] (“n” represents the number of replicates performed for each data point.)
Maron and Ames (1983) describe the conflicting views with regard to the statisical treatment of data generated from the test.

Pseudomonus = test: Bacterial inactivation (colony forming units); format: cell-based; conditions: 16 μM, after 5 J/cm^2 irradiation, starting titer 6.5 logs, 15% FBS in DMEM
Method: In this example bacterial inactivation by the photoreactive nucleic acid binding compounds of the present invention was measured as a function of the ability of the bacteria to subsequently replicate. A gram negative bacteria was chosen as representative of the more difficult bacterial strains to inactivate.
The bacteria, a strain of Pseudomonus, was innoculated into LB with a sterile loop and grown overnight in a shaker at 37° C. Based on the approximation that one OD at 610 nm is equivalent to 5×10^8 colony forming units (cfu)/mL, a 1:10 dilution of the culture was measured on a spectrophotometer, (manufactured by Shimatsu). The bacterial culture was added to a solution of 15% fetal bovine serum in DMEM to a final bacteria concentration of approximately 10^6/mL. An aliquot (0.8 mL) was transferred to a 1.5 mL snap-top polyethylene tube. An aliquot (0.004-0.040 mL) of the test compound stock solution prepared in water, ethanol or dimethylsulfoxide at 0.80-8.0 mM was added to the tube. Compounds were tested at a concentration of 16 μM. The tubes were placed in a light device as described in EXAMPLE 1 and irradiated with 1.3 J/cm^2, 1.2 J/cm^2, and finally 2.5 J/cm^2, for a total of 5 J/cm^2. […] The colony forming units were then counted the following morning and the titer of the […] remaining after phototreatment was calculated based on the dilution factors. […]

With Cc1oc2c(C)c3oc(=O)cc(C)c3cc2c1COCCN [Compound 2, 4′-(4-amino-2-oxa)butyl-4,5′,8-trimethylpsoralen] the revertants per plate ([1]; TA98 +S9, 10 μg/plate) was 24, the revertants per plate ([1]; TA98 +S9, 50 μg/plate) was 35 and the revertants per plate ([1]; TA98 +S9, 100 μg/plate) was 53. It also gave a revertants per plate ([1]; TA98 +S9, 250 μg/plate) of 69, a revertants per plate ([1]; TA98 +S9, 500 μg/plate) of 63 and a revertants per plate ([1]; TA98 −S9, 10 μg/plate) of 28. For the same compound, the revertants per plate ([1]; TA98 −S9, 50 μg/plate) was 52, the revertants per plate ([1]; TA98 −S9, 100 μg/plate) was 39 and the revertants per plate ([1]; TA98 −S9, 250 μg/plate) was 29. For the same compound, the revertants per plate ([1]; TA98 −S9, 500 μg/plate) was 6 and the “log kill of bacteria” value (Pseudomonus) was greater than 5.5 logs.

In the case of Cc1oc2c(C)c3oc(=O)cc(C)c3cc2c1CNCCCCN [Compound 6, 4′-(6-amino-2-aza)hexyl-4,5′,8-trimethylpsoralen], the revertants per plate ([1]; TA98 −S9, 10 μg/plate) is reported as 12, the revertants per plate ([1]; TA98 −S9, 50 μg/plate) is reported as 12 and the revertants per plate ([1]; TA98 −S9, 100 μg/plate) is reported as 22. The revertants per plate ([1]; TA98 −S9, 250 μg/plate) was 12, the revertants per plate ([1]; TA98 −S9, 500 μg/plate) was 9 and the “log kill of bacteria” value (Pseudomonus) was greater than 5.5 logs.
